Assay results taken from US20080063642A1, “Methods of using (+)-1,4-dihydro-7-[(3S,4S)-3-methoxy-4-(methylamino)-1-pyrrolidinyl]-4-oxo-1-(2-thiazolyl)-1,8-naphthyridine-3-carboxylic acid for treatment of certain hematologic disorders” (priority 2006, published 2008).
≈ marks a conversion by molar mass, not a printed value. Marks after values point to notes of the source that are not given here.

What was measured:
[1] = test system: CCRF-CEM (lymphoblastic leukemia); test: MTT cell viability assay, CCRF-CEM; assay type: cell-based; conditions: Homo sapiens, MTT after 72 hours
Experimental: (§1) The following cell lines were used in this assay: HL-60 (promyelocytic leukemia); Jurkat (T cell leukemia); CCRF-CEM (lymphoblastic leukemia); CEM/C2 (camptothecan resistant derivative of CCRF-CEM).
(§2) Cells were seeded in 96 wells plates at 3000 cells per well and incubated for 16 hours. Compound dilutions were performed in DMSO from 10 mM with 3 fold dilutions. Titrations were diluted 1:100 in media to achieve final compound concentrations. The 96 well plates were aspirated and compound dilutions in media were added ([…]). MTT analysis was carried out after 72 hours of incubation at 37° C. Briefly, […] of MTT solution was added to each well. Cells were incubated at 37° C. for 1-2 hours. Cells were lysed with the addition of […] cell lysis buffer and MTT was solubilized overnight at 37° C. Plates were read on a spectromax machine with an absorbance measurement at […]. IC50's were calculated (data provided in Table 1) using regression analysis within GraphPad Prism.

[2] = test system: CEM/C2 (camptothecan resistant derivative of CCRF-CEM); test: MTT cell viability assay, CEM/C2; assay type: cell-based; conditions: Homo sapiens, MTT after 72 hours
Experimental: as §1, §2

[3] = test system: CCRF-CEM acute lymphoblastic leukemia tumor; test: CCRF-CEM xenograft model; assay type: in vivo
Experimental: CCRF-CEM acute lymphoblastic leukemia tumor lobes of 2-3 mm square were transplanted subcutaneously into nude mice. Tumors were allowed to grow to approximately 8-20 mm in diameter. […] Acceptable toxicity was defined as a mean group weight loss of 30% or less and not more than one toxic death among 6 treated animals. Anti-tumor activities of the drugs were assessed 20 or 21 days after the start of administration. FIGS. 1-2 and Table 2 provides data for tumor inhibition rate (IR) and survival ratio in the CCRF-CEM and LM3-Jck xenograft models.

[4] = test system: HL-60 (promyelocytic leukemia); test: MTT cell viability assay, HL-60; assay type: cell-based; conditions: Homo sapiens, MTT after 72 hours
Experimental: as §1, §2

[5] = test system: LM3-Jck human malignant lymphoma tumor; test: LM3-Jck xenograft model; assay type: in vivo; conditions: LM3-JcK
Experimental: LM3-Jck human malignant lymphoma tumor lobes (2-3 mm square) were transplanted subcutaneously into nude mice. Tumors were allowed to grow to approximately 7-14 mm in diameter. […] Acceptable toxicity was defined as a mean group weight loss of 30% or less and not more than one toxic death among 6 treated animals. Anti-tumor activities of the drugs were assessed 21 days after the start of administration.

[6] = CCRF-CEM, 100 mg/kg q4d × 3, IV

Row | SMILES | IC50 [1] | IC50 [2] | IR (%) tumor inhibition rate [3, 6] | Survival Ratio [3, 6] | IC50 [4] | IR (%) tumor inhibition rate ([5]; 100 mg/kg q4d × 3, IV) | Survival Ratio ([5]; 100 mg/kg q4d × 3, IV) | IR (%) tumor inhibition rate ([3]; CCRF-CEM, 12 mg/kg q7d × 3, IV) | IR (%) tumor inhibition rate ([5]; 12 mg/kg q7d × 3, IV) | IR (%) tumor inhibition rate ([3]; CCRF-CEM, 12 mg/kg qd × 5, IV) | Survival Ratio ([3]; nude, mouse, in vivo, iv, 12 mg/kg) | IR (%) tumor inhibition rate ([5]; 12 mg/kg qd × 5, IV)
1 | CCc1c2c(nc3ccc(OC(=O)N4CCC(N5CCCCC5)CC4)cc13)-c1cc3c(c(=O)n1C2)COC(=O)[C@]3(O)CC [Irinotecan] | 0.479 µg/mL (≈ 0.816 µM) | 44.4 µg/mL (≈ 75.7 µM) | 99.7* % | 5/6 | 0.905 µg/mL (≈ 1.54 µM) | 97.7* % | 6/6 |  |  |  |  | 
2 | COc1cccc2c1C(=O)c1c(O)c3c(c(O)c1C2=O)C[C@@](O)(C(=O)CO)C[C@@H]3O[C@H]1C[C@H](N)[C@H](O)[C@H](C)O1 [Doxorubicin] | 0.003 µg/mL (≈ 0.00552 µM) | 0.017 µg/mL (≈ 0.0313 µM) |  |  | 0.024 µg/mL (≈ 0.0442 µM) |  |  | 50.3* % | 57.2* % |  |  | 
3 | COc1cc([C@@H]2c3cc4c(cc3[C@@H](O[C@@H]3O[C@@H]5CO[C@@H](C)O[C@H]5[C@H](O)[C@H]3O)[C@H]3COC(=O)[C@H]23)OCO4)cc(OC)c1O [Etoposide] |  |  |  |  | 0.136 µg/mL (≈ 0.231 µM) |  |  |  |  | 28.3% | 6/6 | 3.0%
